From patent US9567649B2, “System for identification of microorganism and detection of infectious disease” (priority 2011, dated 2017) come the findings set out here.

Common to all, as to assay type: biochemical, Plasmodium falciparum
The test system of data set [1] is pfTopl. The data set can be described thus: DNA cleavage-ligation assay with radio-labeled duplex DNA in absence or presence of CPT. To be noted: 60 nM CPT, duplex OL62/OL63, 20 min at 37° C. Here is the method:
Detection of PfTopl activity using radio-labeled DNA substrates: DNA cleavage reactions were carried out by incubating 20 nM duplex OL37/OL56 or OL62/OL63 with 500 fmol of pfTopl or hTopl in the absence or presence of 60 nM CPT for 20 min at 37° C. in 10 mM Tris (pH 7.5), 5 mM MgCI2, and 5 mM CaCI2 in a final volume of 20 μI. After the 20 min incubation, reactions were stopped with 0.5% (w/v) SDS. Samples were subjected to ethanol precipitation, resuspended in 10 μI of 1 mg/ml trypsin and incubated at 37° C. for 30 min. Reaction products were analyzed by denaturing polyacrylamide gel electrophoresis following standard procedures, and radioactive bands were visualized by PhosphorImaging.

Data set [2] deals with pfTopl. The data set can be described thus: REEAD in nuclear extract from HEK293T cells with or without spike-in pfTopl. From the text:
The specificity of pfTopl(S1) for pfTopl in crude biological samples was addressed using nuclear extract from human HEK293T cells with or without spike-in pfTopl as a model for Plasmodium infection. […] Consequently, green signals observed in FIG. 22b, right panel, originated from hTopl and pfTopl activity in combination where pfTopl(S1) and S(Topl) competed for reaction by pfTopl at the expense of sensitivity.
Cell culture and nuclear extract preparation: Human embryonic kidney HEK293T cells were cultured in Dulbecco's Modified Eagle Medium (GIBCO) supplemented with 10% fetal bovine serum (FBS) (GIBCO), 100 units/mL penicillin and […] streptomycin (Invitrogen). Cells were incubated in a humidified incubator (5% CO2/95% air atmosphere at 37° C.). Cells were harvested with 0.5% Trypsin-EDTA (GIBCO).
Media was discarded and the cell washed in Phosphate-Buffered Saline (1×PBS) prior to nuclear extraction performed as previously described′. […]
(§1) REEAD-microscopic readout: The 5′-amine-conjugated primer was coupled to CodeLink Activated Slides (SurModics) according to the manufacturer's description. […] Quantification of pfTopl specific signals was performed as previously described^1. REEAD-HRP readout: Primer coupling to NHS-activated M-PVA Akl 1 magnetic beads (Chemagen) was performed according to the manufacturer's description. […]

For data set [3], the system named is pfTopl. The data set can be described thus: REEAD: circularization of oligonucleotide sensors by purified pfTopl. The following applies: control-circle added.
Text: Like human topoisomerasel (hTopl), pfTopl belongs to the family of nuclear typelB topoisomerases, which introduce transient single-strand breaks in double-stranded DNA with preference for a very degenerate consensus sequence. Cleavage results in a covalent enzyme-DNA intermediate allowing religation of the generated nick (FIG. 23). […] Based on this, five different oligonucleotides with potential of being circularized specifically by pfTopl cleavage-ligation were designed. These oligonucleotides (PfTopl (S1-S5)) all folded into a hairpin structure containing a probe- and a primer-annealing sequence in the single-stranded loop and a potential pfTopl recognizable sequence at the end of the double-stranded stem region (FIG. 1 b). […] To allow comparative quantification of signals generated in different reactions, a known concentration of control-circle with a unique probe-annealing sequence was added to the reaction mixtures before RCA and resulting RCPs visualized using a green-fluorescent probe. […]
as §1

Turning to `CC[C@@]1(O)C(=O)OCc2c1cc1n(c2=O)Cc2cc3ccccc3nc2-1` [camptothecin], the “effect of camptothecin on pfTopl ligation product” value with pfTopl [1] is recorded as “A ligation product is only observed upon incubation of the substrate with pfTopl in the absence of camptothecin”.

Take “pfTopl(S1): hairpin oligonucleotide sensor for pfTopl, sequence in the 2nd table (TCTAGAAAGTATAGGAACTTCGAACGACTCAGAATGACTG; hairpin, further chemistry not given here)”: the “specificity of sensor for pfTopl in nuclear extract” value in the data set with pfTopl [2] is recorded as “specificity of pfTopl(S1) for pfTopl even on a background of human nucleus content”. Moreover, in the data set on pfTopl [3], the “circularization efficiency by pfTopl (red signals relative to green signals)” value is given as “most efficient sensor of pfTopl”.

B1: S(Topl): REEAD sensor previously demonstrated to react specifically with hTopl in human cell extract (SEQ ID NO: 25) (nucleic acid)
chain: AGAAAAATTTTTAAAAAAACTGTGAAGATCGCTTATTTTTTTAAAAATTTTTCTAAGTCTTTTAGATCCCTCAATGCTGCTGCTGTACTACGATCTAAAAGACTTAGA
modifications: chemistry not given here
In the case of B1, the “circularization efficiency by pfTopl (red signals relative to green signals)” value in the data set with pfTopl [3] is listed as “circularizes S(Topl)”.
